# Reference: US20060264460A1 (Wyeth, priority 2005, published 2006)
# Molecular target: T1, human Cot/Tpl2 kinase (Homo sapiens, UniProt P41279)
# T1 construct: human Cot/Tpl2 kinase construct encoding residues 30-398; 6His (N); made in house; host or cells: Sf9 insect cells, baculovirus system (BD Biosciences)
# Assay: Tpl2/Cot kinase assay: GST-MEK1 phosphorylation detected by ELISA (DELFIA Eu)
# Type: biochemical
# Conditions: 0.4 nM Tpl2, 35 nM GST-MEK1, 50 uM ATP, 1 h at 30° C.
# How it was run: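 Substrate phosphorylation (GST-MEK1 Ser217/221) quantified by DELFIA europium ELISA, yielding IC50 values. Reaction: 1 h at 30° C, pH 7.2 MOPS buffer, 50 uM ATP, 35 nM GST-MEK1, 0.4 nM monomeric His-Tpl2 purified from Sf9 cells, compounds at 1% final DMSO; stopped with EDTA.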
# T1 sequence (P41279 30-398): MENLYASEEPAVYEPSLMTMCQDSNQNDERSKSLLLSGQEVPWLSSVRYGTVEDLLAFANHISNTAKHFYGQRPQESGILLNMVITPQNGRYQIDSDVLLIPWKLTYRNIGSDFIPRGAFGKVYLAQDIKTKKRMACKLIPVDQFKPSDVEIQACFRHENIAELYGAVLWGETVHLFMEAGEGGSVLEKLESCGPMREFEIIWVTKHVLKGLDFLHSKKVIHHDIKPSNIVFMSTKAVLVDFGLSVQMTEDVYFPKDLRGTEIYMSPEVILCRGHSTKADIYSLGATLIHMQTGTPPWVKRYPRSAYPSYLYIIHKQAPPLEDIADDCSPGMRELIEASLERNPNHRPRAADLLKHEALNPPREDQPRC
row,IC50,Structure (SMILES)
1,64 nM,"N#Cc1cnc2ccc(NCc3nccn3CC(=O)O)cc2c1Nc1ccc(F)c(Cl)c1 [Example 136, 2-(2-((4-(3-chloro-4-fluorophenylamino)-3-cyanoquinolin-6-ylamino)methyl)-1H-imidazol-1-yl)acetic acid]"
2,99 nM,"N#Cc1cnc2ccc(NCc3nccn3CC(N)=O)cc2c1Nc1ccc(F)c(Cl)c1 [Example 139, 2-(2-((4-(3-chloro-4-fluorophenylamino)-3-cyanoquinolin-6-ylamino)methyl)-1H-imidazol-1-yl)acetamide]"
3,920 nM,"N#Cc1cnc2ccc(NCc3ccccc3F)cc2c1Nc1ccc(F)c(Cl)c1 [Example 144, 6-(2-fluorobenzylamino)-4-(3-chloro-4-fluorophenylamino)quinoline-3-carbonitrile]"
4,2100 nM,"N#Cc1cnc2ccc(NCc3cccc(F)c3)cc2c1Nc1ccc(F)c(Cl)c1 [Example 145, 6-(3-fluorobenzylamino)-4-(3-chloro-4-fluorophenylamino)quinoline-3-carbonitrile]"
5,5300 nM,"N#Cc1cnc2ccc(NCc3ccc(F)cc3)cc2c1Nc1ccc(F)c(Cl)c1 [Example 146, 6-(4-fluorobenzylamino)-4-(3-chloro-4-fluorophenylamino)quinoline-3-carbonitrile]"
6,1600 nM,"N#Cc1cnc2ccc(NCc3cccc(Br)c3)cc2c1Nc1ccc(F)c(Cl)c1 [Example 147, 6-(3-bromobenzylamino)-4-(3-chloro-4-fluorophenylamino)quinoline-3-carbonitrile]"
7,2200 nM,"N#Cc1cnc2ccc(NCc3cccc(OC(F)(F)F)c3)cc2c1Nc1ccc(F)c(Cl)c1 [Example 148, 6-(3-(trifluoromethoxy)benzylamino)-4-(3-chloro-4-fluorophenylamino)quinoline-3-carbonitrile]"
8,1500 nM,"N#Cc1cnc2ccc(NCc3cccc(C(F)(F)F)c3)cc2c1Nc1ccc(F)c(Cl)c1 [Example 149, 6-(3-(trifluoromethyl)benzylamino)-4-(3-chloro-4-fluorophenylamino)quinoline-3-carbonitrile]"
9,6400 nM,"N#Cc1cnc2ccc(NCc3cccc(Oc4ccccc4)c3)cc2c1Nc1ccc(F)c(Cl)c1 [Example 150, 6-(3-phenoxybenzylamino)-4-(3-chloro-4-fluorophenylamino)quinoline-3-carbonitrile]"
10,610 nM,"N#Cc1cnc2ccc(NCc3ccc(O)c(Cl)c3)cc2c1Nc1ccc(F)c(Cl)c1 [Example 151, 6-(3-chloro-4-hydroxybenzylamino)-4-(3-chloro-4-fluorophenylamino)quinoline-3-carbonitrile]"
11,1300 nM,"N#Cc1cnc2ccc(NCc3cccc(Cl)c3)cc2c1Nc1ccc(F)c(Cl)c1 [Example 152, 6-(3-chlorobenzylamino)-4-(3-chloro-4-fluorophenylamino)quinoline-3-carbonitrile]"
12,2500 nM,"CN(C)Cc1ccc2cc(CNc3ccc4ncc(C#N)c(Nc5ccc(F)c(Cl)c5)c4c3)[nH]c2c1 [Example 154, 4-(3-chloro-4-fluorophenylamino)-6-((6-((dimethylamino)methyl)-1H-indol-2-yl)methylamino)quinoline-3-carbonitrile]"
13,1500 nM,"CN(C)C(=O)c1ccc2cc(CNc3ccc4ncc(C#N)c(Nc5ccc(F)c(Cl)c5)c4c3)[nH]c2c1 [Example 155, 2-((4-(3-chloro-4-fluorophenylamino)-3-cyanoquinolin-6-ylamino)methyl)-N,N-dimethyl-1H-indole-6-carboxamide]"
14,420 nM,"CN(C)C(=O)c1ccc2cc(CNc3ccc4ncc(C#N)c(Nc5ccc(F)c(Cl)c5)c4c3)n(C)c2c1 [Example 156, 2-((4-(3-chloro-4-fluorophenylamino)-3-cyanoquinolin-6-ylamino)methyl)-N,N,1-trimethyl-1H-indole-6-carboxamide]"
15,8500 nM,"N#Cc1cnc2ccc(NCc3cc4ccccc4[nH]3)cc2c1Nc1ccc(F)c(Cl)c1 [Example 157, 6-((1H-indol-2-yl)methylamino)-4-(3-chloro-4-fluorophenylamino)quinoline-3-carbonitrile]"
16,28 nM,"CS(=O)(=O)c1cccc(CNc2ccc3ncc(C#N)c(Nc4ccc(F)c(Cl)c4)c3c2)c1 [Example 167, 6-(3-(methylsulfonyl)benzylamino)-4-(3-chloro-4-fluorophenylamino)quinoline-3-carbonitrile]"
17,150 nM,"N#Cc1cnc2ccc(NCc3cccc(S(N)(=O)=O)c3)cc2c1Nc1ccc(F)c(Cl)c1 [Example 168, 3-((4-(3-chloro-4-fluorophenylamino)-3-cyanoquinolin-6-ylamino)methyl)benzenesulfonamide]"
18,14 nM,"Cn1ccnc1CNc1ccc2ncc(C#N)c(Nc3ccc(F)c(Cl)c3)c2c1 [Example 171, 4-(3-chloro-4-fluorophenylamino)-6-((1-methyl-1H-imidazol-2-yl)methylamino)quinoline-3-carbonitrile]"

# The next lines start with the compound.
row,Structure (SMILES),IC50
1,"COC(=O)Cn1ccnc1CNc1ccc2ncc(C#N)c(Nc3ccc(F)c(Cl)c3)c2c1 [Example 137, Methyl 2-(2-((4-(3-chloro-4-fluorophenylamino)-3-cyanoquinolin-6-ylamino)methyl)-1H-imidazol-1-yl)acetate]",28 nM
2,"N#Cc1cnc2ccc(NCc3nccn3CC(=O)N3CCOCC3)cc2c1Nc1ccc(F)c(Cl)c1 [Example 138, 4-(3-chloro-4-fluorophenylamino)-6-((1-(2-morpholino-2-oxoethyl)-1H-imidazol-2-yl)methylamino)quinoline-3-carbonitrile]",27 nM
3,"CN(C)C(=O)Cn1ccnc1CNc1ccc2ncc(C#N)c(Nc3ccc(F)c(Cl)c3)c2c1 [Example 140, 2-(2-((4-(3-chloro-4-fluorophenylamino)-3-cyanoquinolin-6-ylamino)methyl)-1H-imidazol-1-yl)-N, N-dimethylacetamide]",20 nM
4,"CN1CCN(C(=O)Cn2ccnc2CNc2ccc3ncc(C#N)c(Nc4ccc(F)c(Cl)c4)c3c2)CC1 [Example 141, 4-(3-chloro-4-fluorophenylamino)-6-((1-(2-(4-methylpiperazin-1-yl)-2-oxoethyl)-1H-imidazol-2-yl)methylamino)quinoline-3-carbonitrile]",120 nM
5,"CC(C)(C)OC(=O)N1CCC(NC(=O)Cn2ccnc2CNc2ccc3ncc(C#N)c(Nc4ccc(F)c(Cl)c4)c3c2)CC1 [Example 142, tert-butyl 4-(2-(2-((4-(3-chloro-4-fluorophenylamino)-3-cyanoquinolin-6-ylamino)methyl)-1H-imidazol-1-yl)acetamido)piperidine-1-carboxylate]",1800 nM
6,"N#Cc1cnc2ccc(NCc3nccn3CC(=O)NC3CCNCC3)cc2c1Nc1ccc(F)c(Cl)c1 [Example 143, 2-(2-((4-(3-chloro-4-fluorophenylamino)-3-cyanoquinolin-6-ylamino)methyl)-1H-imidazol-1-yl)-N-(piperidin-4-yl)acetamide]",750 nM
7,"N#Cc1cnc2c(Br)cc(NCc3nn[nH]c3-c3ccccc3C(F)(F)F)cc2c1Nc1ccc(F)c(Cl)c1 [Example 153, 8-bromo-4-[(3-chloro-4-fluorophenyl)amino]-6-[({5-[2-(trifluoromethyl)phenyl]-1H-1,2,3-triazol-4-yl}methyl)amino]quinoline-3-carbonitrile]",220 nM
8,"N#Cc1cnc2cc(OCCCN3CCOCC3)c(NCc3cnc[nH]3)cc2c1Nc1ccc(F)c(Cl)c1 [Example 159, 6-((1H-imidazol-5-yl)methylamino)-4-(3-chloro-4-fluorophenylamino)-7-(3-morpholinopropoxy)quinoline-3-carbonitrile]",9200 nM
9,"N#Cc1cnc2cc(N3CCOCC3)c(NCc3cnc[nH]3)cc2c1Nc1ccc(F)c(Cl)c1 [Example 160, 6-((1H-imidazol-5-yl)methylamino)-4-(3-chloro-4-fluorophenylamino)-7-morpholinoquinoline-3-carbonitrile]",> 40000 nM
10,"CN1CCN(c2cc3ncc(C#N)c(Nc4ccc(F)c(Cl)c4)c3cc2NCc2cnc[nH]2)CC1 [Example 161, 6-((1H-imidazol-5-yl)methylamino)-4-(3-chloro-4-fluorophenylamino)-7-(4-methylpiperazin-1-yl)quinoline-3-carbonitrile]",> 40000 nM
11,"CN(C)CCSc1cc2ncc(C#N)c(Nc3ccc(F)c(Cl)c3)c2cc1NCc1cnc[nH]1 [Example 163, 6-((1H-imidazol-5-yl)methylamino)-4-(3-chloro-4-fluorophenylamino)-7-(2-(dimethylamino)ethylthio)quinoline-3-carbonitrile]",150 nM
12,"CN(C)CCN1CCN(c2cc3ncc(C#N)c(Nc4ccc(F)c(Cl)c4)c3cc2NCc2cnc[nH]2)CC1 [Example 164, 6-((1H-imidazol-5-yl)methylamino)-4-(3-chloro-4-fluorophenylamino)-7-(4-(2-(dimethylamino)ethyl)piperazin-1-yl)quinoline-3-carbonitrile]",> 40000 nM
13,"CCOc1cc2ncc(C#N)c(Nc3ccc(F)c(Cl)c3)c2cc1NCc1cnc[nH]1 [Example 165, 6-((1H-imidazol-5-yl)methylamino)-4-(3-chloro-4-fluorophenylamino)-7-ethoxyquinoline-3-carbonitrile]",> 40000 nM
14,"N#Cc1cnc2cc(OCCBr)c(NCc3cnc[nH]3)cc2c1Nc1ccc(F)c(Cl)c1 [Example 166, 6-((1H-imidazol-5-yl)methylamino)-7-(2-bromoethoxy)-4-(3-chloro-4-fluorophenylamino)quinoline-3-carbonitrile]",> 40000 nM
15,"N#Cc1cnc2ccc(NCc3cnc[nH]3)cc2c1Nc1cccc(Br)c1 [Example 169, 6-((1H-imidazol-5-yl)methylamino)-4-(3-bromophenylamino)quinoline-3-carbonitrile]",21 nM
16,"N#Cc1cnc2c(Br)cc(NCc3nn[nH]c3-c3ccc(F)cc3)cc2c1Nc1ccc(F)c(Cl)c1 [Example 170, 8-bromo-4-[(3-chloro-4-fluorophenyl)amino]-6-({[5-(4-fluorophenyl)-1H-1,2,3-triazol-4-yl]methyl}amino)quinoline-3-carbonitrile]",680 nM
